Earlier results in PubChem BioAssay AID1259409 (Chemical Carcinogenesis Research Information System (CCRIS), 2018).

System: rodent chemically induced tumor inhibition, incidence and multiplicity
Assay: CCRIS tumor inhibitor studies
Conditions: Promoter: NONE USED

In the case of `CCCCOC(=O)c1ccccc1C(=O)OCc1ccccc1`, the “tumour outcome (control, treated, inhibition, significance)” value (Carcinogen: 7,12-DIMETHYLBENZ[A]ANTHRACENE, 57-97-6, Dose [Inhibitor]: 0, 250 MG/KG IN CORN OIL 1/D FOR 7 D PRIOR TO CARCINOGEN DOSE (STUDY DURATION: 16 WK), Route [Inhibitor]: GAVAGE, Species: RAT, Strain/Sex: ?/FEMALE, Target Tissue: Type of Lesion: MAMMARY GLAND: TUMOR, Dose [Carcinogen]: 31 MG/KG IN CORN OIL ONCE) is listed as 82%, 52%, 37%, p<0.05 and the “tumour outcome (control, treated, inhibition, significance)” value (Carcinogen: 7,12-DIMETHYLBENZ[A]ANTHRACENE, 57-97-6, Dose [Inhibitor]: 0, 500 MG/KG IN CORN OIL 1/D FOR 7 D PRIOR TO CARCINOGEN DOSE (STUDY DURATION: 16 WK), Route [Inhibitor]: GAVAGE, Species: RAT, Strain/Sex: ?/FEMALE, Target Tissue: Type of Lesion: MAMMARY GLAND: TUMOR, Dose [Carcinogen]: 31 MG/KG IN CORN OIL ONCE) is listed as 82%, 52%, 37%, p<0.05.
For `CCCCCCCCCC`, the “tumour outcome (control, treated, inhibition, significance)” value (Carcinogen: BENZO[A]PYRENE, 50-32-8, Dose [Inhibitor]: 25 MG IN 0.1 ML ACETONE 3/WK ADMINISTERED SIMULTANEOUSLY WITH CARCINOGEN FOR DU RATION OF STUDY (STUDY DURATION: 440 D), Route [Inhibitor]: DERMAL, Species: MOUSE, Strain/Sex: ICR/FEMALE, Target Tissue: Type of Lesion: SKIN: SQUAMOUS CARCINOMA, Dose [Carcinogen]: 5 UG IN 0.1 ML ACETONE 3/WK FOR DURATION OF STUDY) is given as 12/50 (24%), 34/50 (68%), -183%, not calculated and the “tumour outcome (control, treated, inhibition, significance)” value (Carcinogen: BENZO[A]PYRENE, 50-32-8, Dose [Inhibitor]: 25 MG IN 0.1 ML ACETONE 3/WK ADMINISTERED SIMULTANEOUSLY WITH CARCINOGEN FOR DURATION OF STUDY (STUDY DURATION: 440 D), Route [Inhibitor]: DERMAL, Species: MOUSE, Strain/Sex: ICR/FEMALE, Target Tissue: Type of Lesion: SKIN: PAPILLOMA, Dose [Carcinogen]: 5 UG IN 0.1 ML ACETONE 3/WK FOR DURATION OF STUDY) is given as 16/50 (32%), 38/50 (76%), -138%, not calculated.
For `O=c1c2ccccc2[se]n1-c1ccccc1`, the “tumour outcome (control, treated, inhibition, significance)” value (Carcinogen: 17BETA-ESTRADIOL, 50-28-2, Dose [Inhibitor]: 0, 0.2% IN DIET BEGINNING 5 D POST CARCINOGEN DOSE (STUDY DURATION: 7.5 MO), Route [Inhibitor]: ORAL, Species: HAMSTER, Strain/Sex: SYRIAN/MALE, Target Tissue: Type of Lesion: KIDNEY: TUMOR, Dose [Carcinogen]: 25 MG PELLET REPLACED WITH A SECOND PELLET AFTER 4 MO) is listed as 13/13 (100%), 8/11 (73%), 27%, p<0.05.
